Like-named read-outs stand apart in the source and are kept apart here.
Legend:
sarcoma = system: sarcoma; design: method as in earlier work; settings: cited from earlier work
leukemic P388 cells = system: leukemic P388 cells; design: method as in doi:10.1016/j.ccr.2016.02.001; settings: cited from earlier work
[1] = system: MCF-12A cells (non-cancerous breast cells); experiment: Cell proliferation evaluation (label-free image cell counting); assay type: cell-based, human; settings: for IC50: suppression of cell proliferation, n = 4, read-out: IC50 against MCF-12A cells; for Selectivity Index for MDA-MB-231/R: IC50 MCF-12A divided by IC50 MDA-MB-231/R
Experimental: (§1) The human TNBC MDA-MB-231 cell line (ATCC HTB-26) and the non-cancerous breast cell line MCF-12A (ATCC CRL-10782) were purchased from ATCC (Manassas, VA, USA). DMEM-HG cell growth medium supplemented with 10% (v/v) FBS was used to culture breast cancer cells. To establish a cisplatin-resistant cell strain, MDA-MB-231 cells were continuously treated with increasing concentrations of cisplatin (up to 2 µM) during a period of 6 months. When a consistent cell growth rate in the presence of cisplatin was achieved, these cells were named MDA-MB-231/R and stocked to assure the consistency of the phenotype for future use and experiments. All posterior experiments were performed within 10 passages to maintain the resistance while routinely growing the MDA-MB-231/R cell line in a cell culture medium without the addition of cisplatin. MCF-12A cells were cultured in DMEM/F12 medium supplemented with 100 ng/mL cholera toxin, 0.01 mg/mL bovine insulin, 20 ng/mL hEGF, 500 ng/mL hydrocortisone and 5% (v/v) horse serum. Cells were grown in monolayers in a sterile environment at 37 °C with a 5% CO2 humidified atmosphere. Under these conditions, the population doubling time was 25.5 ± 0.9 h and 30.6 ± 1.1 h for MDA-MB-231 and MDA-MB-231/R cells, respectively, and 20.6 ± 3.1 h for MCF-12A cells. The cell cultures were routinely screened for mycoplasma contamination, yielding negative results.
(§2) Cells were seeded in 96-well microplates at the cell density 1.5 × 10^4 cells/cm^2 (final volume 200 µL/well) and left 24 h to attach. Afterwards, the growth medium was replaced with the growth medium containing cisplatin (0.1–200 µM), Pd3Spd2 (0.3–200 µM), Pt3Spd2 (0.3–100 µM) and Pd2Spm (0.3–200 µM).
(§3) Cell proliferation was monitored with the direct image acquisition of cells on microplates at 0, 24, 48 and 72 h post-addition of the tested compounds using a LionheartFX automated microscope (BioTek, Winooski, VT, USA). Label-free kinetic 4× images were acquired and processed using Gen 5 Image Analysis software (BioTek, Winooski, VT, USA). Individual cells per image were identified and counted, and normalized cell growth (%) was calculated using the following formula: Ct=Number of Treated Cellst−Number of Treated Cells0/Number of Untreated Cellst−Number of Untreated Cells0×100 where C(t) is the percent of net cell growth over time, Number of Treated Cells(t) is the count of cells treated with drug at each time point, Number of Treated Cells(0) is the count cells treated with drug at time 0 h, Number of Untreated Cells(t) is the count of untreated (control) cells at each time point and Number of Untreated Cells(0) is the count of untreated (control) cells at time 0 h.
(§4) Data are expressed as the mean ± standard error of the mean (SEM). GraphPad Prism 7 Software (San Diego, CA, USA) was used, and the statistical analysis was performed using the two-tailed Student’s t-test. The half-maximal inhibitory concentration values (IC50) were calculated by interpolation from the nonlinear regression curves obtained from cell proliferation/cytotoxicity data using “log(inhibitor) versus the normalized response–variable slope equation”. A p-value lower than 0.05 was considered statistically significant.

MDA-MB-231 cells [2] = experiment: as above; assay type: cell-based, human; settings: for concentration of maximum suppression of cell proliferation: MDA-MB-231, 48 h
Experimental: as §1, §2, §3, §4

[3] = system: MDA-MB-231/R cells (cisplatin-resistant); experiment: as above; assay type: cell-based, human; settings: for concentration of maximum suppression of cell proliferation: MDA-MB-231/R; for IC50: suppression of cell proliferation, n = 4; for Resistance Index: IC50 MDA-MB-231/R divided by IC50 MDA-MB-231, cell proliferation assay
Experimental: as §1, §2, §3, §4

MDA-MB-231 cells [4] = experiment: MTT assay (cell viability); assay type: cell-based, human; settings: n = 4
Experimental: (§5) The cells were harvested upon the addition of trypsin/EDTA solution, seeded in 96-well plates (1.5 × 10^4 cells/cm^2) and incubated at 37 °C. After allowing the cells to adhere for 24 h, the growth medium was replaced with the growth medium containing Pd3Spd2 (1–200 µM) or Pt3Spd2 (1–200 µM).
(§6) After each incubation period (24, 48 and 72 h), the cell viability was evaluated by the MTT [33] method. Briefly, a MTT solution (0.5 mg/mL in PBS) was added to each well after carefully removing the medium and allowed to incubate for 3 h at 37 °C; after which, the MTT was aspirated and, in order to dissolve the formazan crystals, 100 µL of DMSO were added. The optical density was measured at 570 nm.
as §4

[5] = system: MDA-MB-231/R cells (cisplatin-resistant); experiment: MTT assay (cell viability); assay type: cell-based, human; settings: for IC50: cell viability, MTT assay, n = 4
Experimental: as §5, §6, §4

[6] = suppression of cell proliferation, 48 h incubation, n = 4, read-out: MDA-MB-231 IC50
[7] = IC50 MCF-12A divided by IC50 MDA-MB-231, 48 h
[8] = suppression of cell proliferation, 24 h incubation, n = 4, read-out: MDA-MB-231 IC50
[9] = suppression of cell proliferation, 72 h incubation, n = 4, read-out: MDA-MB-231 IC50

SMILES | IC50 ([1]; 48 h incubation) | concentration of maximum suppression of cell proliferation (MDA-MB-231 cells [2]) | IC50 (MDA-MB-231 cells [2]; [6]) | concentration of maximum suppression of cell proliferation ([3]; 48 h) | IC50 ([3]; 48 h incubation) | Selectivity Index for MDA-MB-231 [1, 7] | IC50 (MDA-MB-231 cells [2]; [8]) | IC50 (MDA-MB-231 cells [2]; [9]) | IC50 ([3]; 24 h incubation) | IC50 ([3]; 72 h incubation) | IC50 (MDA-MB-231 cells [4]; 24 h incubation) | IC50 (MDA-MB-231 cells [4]; 48 h incubation) | IC50 (MDA-MB-231 cells [4]; 72 h incubation) | IC50 ([5]; 24 h incubation) | IC50 ([5]; 48 h incubation) | IC50 ([5]; 72 h incubation) | further results
O=[N+]([O-])[O-].O=[N+]([O-])[O-].[Pd+2].c1ccc(-c2ccccn2)nc1 [Pd(bpy)(ONO2)2] | – | – | – | – | – | – | – | – | – | – | – | – | – | – | – | – | antitumor activity against sarcoma (sarcoma): effective antitumor agent; activity towards leukemic P388 cells (leukemic P388 cells): inactive
NCCCNCCCCNCCCN.[Cl][Pd][Cl].[Cl][Pd][Cl] [Pd2Spm, reference compound] | ~90 µM | 30 µM | 7.9 µM | 30 µM | 11.6 µM | – | – | – | – | – | – | – | – | – | – | – | concentrations required to suppress/modify MCF-12A cell proliferation ([1]; MCF-12A healthy breast cells, 48 h): above 40 μM; suppression of MCF-12A cell proliferation ([1]; MCF-12A, for 100 μM, 48 h): up to 60%
NCCCCNCCCN.NCCCCNCCCN.[Cl][Pd][Cl].[Cl][Pd][Cl].[Cl][Pd][Cl] [Pd3Spd2] | 53 µM | 30 µM | 8.44 µM | 30 µM | 10.6 µM | 6.28 | 8.35 µM | 7.92 µM | 13.3 µM | 10.8 µM | 8.99 µM | 4.65 µM | 6.12 µM | 9.24 µM | 10.6 µM | 11.4 µM | Selectivity Index for MDA-MB-231 ([1]; IC50 MCF-12A divided by IC50 MDA-MB-231, 24 h): 7.94; Selectivity Index for MDA-MB-231 ([1]; IC50 MCF-12A divided by IC50 MDA-MB-231, 72 h): 6.28; Selectivity Index for MDA-MB-231/R ([1]; 48 h): 4.99; Selectivity Index for MDA-MB-231/R ([1]; 72 h): 4.59; selectivity index for MDA-MB-231 cells (sensitive TNBC), over incubation times ([1]; MCF-12A versus MDA-MB-231, depending on the time of incubation (24-72 h)): > 6.28; selectivity index for MDA-MB-231/R cells (resistant TNBC), over incubation times ([1]; MCF-12A versus MDA-MB-231/R, depending on the time of incubation (24-72 h)): > 4.59; IC50 ([1]; 24 h incubation): 66.3 µM; IC50 ([1]; 72 h incubation): 49.7 µM; concentrations that suppressed cell proliferation (MDA-MB-231 cells [2]; MDA-MB-231, 24-72 h, concentration-dependent): above 1 μM; Resistance Index ([3]; 24 h): 1.6; Resistance Index ([3]; 48 h): 1.3; Resistance Index ([3]; 72 h): 1.4; resistance index (abstract summary) ([5]; MDA-MB-231/R versus MDA-MB-231, over assays and incubation times): lower than 2.3
NCCCCNCCCN.NCCCCNCCCN.[Cl][Pt][Cl].[Cl][Pt][Cl].[Cl][Pt][Cl] [Pt3Spd2] | – | – | > 100 µM | – | > 100 µM | – | > 100 µM | > 100 µM | > 100 µM | > 100 µM | > 100 µM | > 100 µM | > 100 µM | > 100 µM | 67.9 µM | > 100 µM | reduction of cell proliferation (MDA-MB-231 cells [2]; MDA-MB-231, only with concentrations above 100 μM): up to 25%; IC50 (MDA-MB-231 cells [2]; cell proliferation, depending on the incubation period (24, 48, 72 h), read-out: IC50 in MDA-MB-231 cells, over all incubation periods): > 100 µM
N.N.[Cl][Pt][Cl] [cisplatin, cis-dichlorodiammine platinum(II)] | 1 µM | 30 µM | 1 µM | 200 µM | 32.4 µM | 1 | – | – | – | – | – | – | – | – | – | – | –
